From PMC8580996, “2-Oxoglutarate derivatives can selectively enhance or inhibit the activity of human oxygenases” (Nature Communications, 2021)
Entries after “also recorded” stand apart in the source; their conditions may differ.

Experiments:
[1] = molecular target: T1, FIH (Homo sapiens, UniProt Q9NWT6); assay: Competition assay in a single reaction vessel, FIH-catalyzed hydroxylation (SPE-MS); type: biochemical
Protocol: (§1) Mean of three independent runs (n = 3; mean ± SD). […] Cosubstrates: a 20 μM 2OG; b 20 μM 2OG; c 20 μM 1; d 20 μM 12; e 20 μM 12 and 100 μM 2OG; f 100 μM 14. Source data are provided as a Source Data file.
(§2) Mean of three independent runs (n = 3; mean ± SD). […] Source data are provided as a Source Data file.
(§3) Peptide turnover was monitored by SPE-MS using the same instrument configuration (with the exception that the peptides were eluted from the SPE cartridge with 0.1%v/v aqueous formic acid in 80/20 v/v acetonitrile/water) as described above.
(§4) FIH and AspH-catalyzed peptide hydroxylations were analyzed simultaneously using SPE-MS as described in the
(§5) Methods section; competition experiments were performed in the same reaction vessel using equimolar 2OG
(§6) oxygenase and substrate concentrations. […]
(§7) Source data are provided as a Source Data file.
(§8) FIH and AspH-catalyzed peptide hydroxylations were analyzed simultaneously using SPE-
(§9) MS as described in the Methods section; competition experiments were performed in the same reaction vessel
(§10) using equimolar 2OG oxygenase and substrate concentrations. […]
(§11) 2OG, 100 μM 14. Source data are provided as a Source Data file.

[2] = molecular target: T2, AspH (Homo sapiens, UniProt Q12797); design: method as in PMID 34163896; details: hFX-CP101–119 substrate, 330 μM 2OG or 2OG derivative, t = 15 min; cited from earlier work
T2 construct: the tetratricopeptide repeat domain (His6-AspH315-758), was produced and purified as previously reported; made in house
T2 sequence (Q12797 315-758): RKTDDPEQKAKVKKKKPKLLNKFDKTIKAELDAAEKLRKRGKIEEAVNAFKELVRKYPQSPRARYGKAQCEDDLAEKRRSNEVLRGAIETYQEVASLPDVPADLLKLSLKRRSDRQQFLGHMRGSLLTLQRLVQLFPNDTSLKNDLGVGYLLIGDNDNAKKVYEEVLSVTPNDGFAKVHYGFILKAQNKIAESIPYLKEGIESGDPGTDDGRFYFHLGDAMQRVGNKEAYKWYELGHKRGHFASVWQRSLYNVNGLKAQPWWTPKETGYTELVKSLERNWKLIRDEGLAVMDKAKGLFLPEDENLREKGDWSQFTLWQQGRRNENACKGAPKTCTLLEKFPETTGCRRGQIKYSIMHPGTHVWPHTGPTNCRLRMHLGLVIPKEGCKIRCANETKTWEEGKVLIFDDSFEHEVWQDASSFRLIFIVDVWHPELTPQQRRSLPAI

[3] = molecular target: T2, AspH; assay: Competition assay in a single reaction vessel, AspH-catalyzed hydroxylation (SPE-MS); type: biochemical
Protocol: as §1, §2, §3, §4, §5, §6, §7, §8, §9, §10, §11

[4] = molecular target: T1, FIH; assay: SPE-MS FIH inhibition assay; type: biochemical; details: for FIH IC50, independent replicate: source data of Table 3, single independent replicates; for IC50 FIH: 5.0 μM HIF-1α788-822, 10 μM 2OG, mean of two runs; on IC50 FIH: 0.15 µM FIH
Protocol: FIH inhibition assays were performed as described, using cosubstrate/cofactor stock solutions (L-ascorbic acid, LAA: 50 mM in MQ-grade water; 2-oxoglutarate, 2OG: 10 mM in MQ-grade water; ammonium iron(II) sulfate hexahydrate, FAS, (NH4)2Fe(SO4)2·6H2O: 400 mM in 20 mM HCl diluted to 1 mM in MQ-grade water), which were freshly prepared from commercially-sourced solids (Sigma Aldrich).
Dimethyl sulfoxide (DMSO) solutions of the 2OG derivatives were dry dispensed across 384-well polypropylene assay plates (Greiner) in an approximately threefold and 11-point dilution series (100 μM top concentration; the final DMSO assay concentration was kept constant at 0.5%v/v) using an ECHO 550 acoustic dispenser (Labcyte). […] Each reaction was performed in technical duplicates in adjacent wells of the assay plates; additionally, assays were performed in two independent duplicates on different days using different inhibitor solutions.
The Enzyme Mixture (25 μL/well), containing 0.3 μM His6-FIH in buffer (50 mM Tris, 50 mM NaCl, pH 7.5), was dispensed across the inhibitor-containing 384-well assay plates with a multidrop dispenser (ThermoFischer Scientific) at 20 °C under an ambient atmosphere. The plates were subsequently centrifuged (1000 rpm, 15 s) and incubated for 15 min at 20 °C. The Substrate Mixture (25 μL/well), containing 10.0 μM HIF-1α788–822[37] substrate, 200 μM LAA, 20.0 μM 2OG, and 20.0 μM FAS in buffer (50 mM Tris, 50 mM NaCl, pH 7.5), was added using the multidrop dispenser. The plates were centrifuged (1000 rpm, 15 s) and after incubating for 15 min, the enzyme reaction was stopped by the addition of 10%v/v aqueous formic acid (5 μL/well). The plates were then centrifuged (1000 rpm, 30 s) and analyzed by MS.
(§12) MS-analyses were performed using a RapidFire RF 365 high-throughput sampling robot (Agilent) attached to an iFunnel Agilent 6550 accurate-mass quadrupole time-of-flight mass spectrometer operated in the positive ionization mode. Assay samples were aspirated under vacuum for 0.6 s and loaded onto a C4 SPE cartridge. After loading, the C4 SPE cartridge was washed with 0.1%v/v aqueous formic acid to remove non-volatile buffer salts (5.5 s, 1.5 mL/min). […] The mass spectrometer was operated using the MassHunter Workstation B.08.00 software (Agilent), the mass spectrometer parameters were: capillary voltage (4000 V), nozzle voltage (1000 V), fragmentor voltage (365 V), gas temperature (280 °C), gas flow (13 L/min), sheath gas temperature (350 °C), sheath gas flow (12 L/min). The m/z + 2 (for CA1–20) or +3 (for HIF-1α788–822) charge states of the peptide (substrate) and the hydroxylated peptide (product) were used to extract ion chromatogram data, peak areas were integrated using RapidFire Integrator 4.3.0 (Agilent). Data were exported into Microsoft Excel and used to calculate the % conversion of the hydroxylation reaction using the equation: % conversion = 100 × (integral product peptide)/(integral substrate peptide+integral product peptide). […] Z′-factors were calculated according to the cited literature using Microsoft Excel (Supplementary Fig. 26)[83].
SPE-MS FIH inhibition assays were performed as described in the Methods section.
Tris, 50 mM NaCl, pH 7.5, 20 °C). […]

[5] = molecular target: T1, FIH; assay: SPE-MS FIH turnover (cosubstrate) assay in the absence of 2OG; type: biochemical; details: 330 μM 2OG or 2OG derivative, no 2OG, t = 15 min
Protocol: The ability of 35 synthetic C3/C4-substituted 2OG derivatives, which were prepared via a reported procedure (Supplementary Fig. 1 and Supplementary Methods)[21], to sustain catalysis by purified recombinant FIH in the absence of 2OG was examined using an assay directly monitoring substrate depletion and product formation (i.e., a +16 Da mass shift) by solid-phase extraction (SPE) coupled to mass spectrometry (SPE-MS)[44],[45]. […] (i.e. CA1–20)[47], were used as FIH substrates to test for potential substrate-dependent differences in terms of cosubstrate analog selectivity.
as §12, with “Assay” for “MS-analyses were performed using a RapidFire RF 365 high-throughput sampling robot (Agilent) attached to an iFunnel Agilent 6550 accurate-mass quadrupole time-of-flight mass spectrometer operated in the positive ionization mode. Assay”, “The m/z + 2 (for CA1–20) or +3 (for HIF-1α788–822) charge states of the peptide (substrate) and the hydroxylated peptide (product) were used to extract ion chromatogram data, peak areas were integrated using RapidFire Integrator 4.3.0 (Agilent).” left out

[6] = molecular target: T2, AspH; details: 0.05 μM AspH, 1.0 μM hFX-CP101-119, 3.0 μM 2OG, ref 21 (supplementary ref 1); cited from earlier work
[7] = Fig 4d, 0.5 mM 13 and 0.5 mM 2OG, after 4 min

T1 sequence (Q9NWT6 whole entry): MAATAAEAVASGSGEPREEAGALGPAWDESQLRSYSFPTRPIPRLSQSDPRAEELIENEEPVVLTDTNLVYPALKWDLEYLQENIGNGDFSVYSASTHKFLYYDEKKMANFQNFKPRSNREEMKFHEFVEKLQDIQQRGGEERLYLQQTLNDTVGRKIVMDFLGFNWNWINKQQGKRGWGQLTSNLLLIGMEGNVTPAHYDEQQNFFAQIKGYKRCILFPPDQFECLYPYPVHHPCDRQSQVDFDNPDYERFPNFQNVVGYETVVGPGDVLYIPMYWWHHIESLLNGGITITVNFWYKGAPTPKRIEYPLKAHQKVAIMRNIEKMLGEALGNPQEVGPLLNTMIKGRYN

SMILES	effect on FIH activity ([1]; Fig 4, 13 from 0 to 2.0 mM, 0.5 mM 2OG)	FIH conversion [1, 7]	AspH-catalyzed substrate hydroxylation ([3]; Fig 4f, fourfold excess of 13 over 0.5 mM 2OG, after 4 min)	AspH conversion [3, 7]	FIH IC50, independent replicate [4]	FIH activity, %-substrate conversion ([5]; CA1–20 substrate)	FIH activity, %-substrate conversion ([5]; HIF-1α788–822 substrate)	IC50 FIH [4]	FIH cosubstrate activity ([1]; Supplementary Fig 8b, 100 μM 28, 0 μM 2OG)	AspH conversion ([3]; Supplementary Fig 8b, 100 μM 28, 0 μM 2OG, after 35 min)	AspH activity, %-substrate conversion [2]	IC50 [6]	IC50 AspH [6]
CC(C)(CC(=O)C(=O)O)C(=O)O [compound 13, 4,4-dimethyl-2OG]	no effect on FIH activity	~ 80%	< 20%	~ 60%	not inhibiting	~10%	< 1%				<1%	~300 nM	
O=C(O)C(=O)c1cccc(C(=O)O)c1 [compound 27]						^c<1% ^d<1%	^c<1% ^d<1%	inactive			<1%		inactive
O=C(O)C(=O)c1ccc(C(=O)O)cc1 [compound 28, 4-Carboxyphenylglyoxylic acid]					not inhibiting	~10%	< 1%		no cosubstrate activity	~ 40%	~80%		inactive; also recorded: neither inhibits AspH nor FIH catalysis
O=C(O)C(=O)c1ccc(C(=O)O)c(F)c1 [compound 30]						^c<1% ^d<1%	^c<1% ^d<1%	inactive			~8%		inactive
O=C(O)C(=O)c1ccc(C(=O)O)c(Br)c1 [compound 32]						^c<1% ^d<1%	^c<1% ^d<1%	inactive			~8%		inactive
O=C(O)C(=O)c1cscc1C(=O)O [compound 34]						^c<1% ^d<1%	^c<1% ^d<1%	inactive			<1%		inactive

More lines, main results first:

effect on FIH activity ([1]; Fig 4, 13 from 0 to 2.0 mM, 0.5 mM 2OG)	FIH conversion [1, 7]	AspH-catalyzed substrate hydroxylation ([3]; Fig 4f, fourfold excess of 13 over 0.5 mM 2OG, after 4 min)	AspH conversion [3, 7]	FIH IC50, independent replicate [4]	FIH activity, %-substrate conversion ([5]; CA1–20 substrate)	FIH activity, %-substrate conversion ([5]; HIF-1α788–822 substrate)	IC50 FIH [4]	FIH cosubstrate activity ([1]; Supplementary Fig 8b, 100 μM 28, 0 μM 2OG)	AspH conversion ([3]; Supplementary Fig 8b, 100 μM 28, 0 μM 2OG, after 35 min)	SMILES	AspH activity, %-substrate conversion [2]	IC50 [6]	IC50 AspH [6]
					^c<1% ^d<1%	^c<1% ^d<1%	inactive			O=C(O)C(=O)c1ccc(C(=O)O)cc1F [compound 29]	~45%		inactive
					^c<1% ^d<1%	^c<1% ^d<1%	inactive			O=C(O)C(=O)c1ccc(C(=O)O)cc1Br [compound 31]	~20%		inactive
					^c<1% ^d<1%	^c<1% ^d<1%	inactive			Cc1cc(C(=O)O)ccc1C(=O)C(=O)O [compound 33]	~5%		inactive
